This test deals with L1210 leukemia ip in BDF1 mice, survival T/C. Description: NCI In Vivo Anticancer Drug Screen. Data for tumor model L1210 Leukemia (intraperitoneal) in B6D2F1 (BDF1) mice. The settings on record: endpoint: mean survival time, higher = longer survival. The essentials:
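Transplanted-tumor mice were given test agent; controls received vehicle only. Survival readings from the two groups were divided (treated over control).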

Setting [1] is: dose: 50.0 mg/kg/injection, schedule: Q01DX001 (ip), vehicle: saline.
The mark [2] stands for this setting: dose: 100.0 mg/kg/injection, schedule: Q01DX001 (ip), vehicle: saline.
Setting [3] is: dose: 200.0 mg/kg/injection, schedule: Q01DX001 (ip), vehicle: saline.
Where [4] appears, read: dose: 400.0 mg/kg/injection, schedule: Q01DX001 (ip), vehicle: saline.
Where [5] appears, read: dose: 100.0 mg/kg/injection, schedule: Q04DX002 (ip), vehicle: saline.
[6] abbreviates: dose: 200.0 mg/kg/injection, schedule: Q04DX002 (ip), vehicle: saline.
Where [7] appears, read: dose: 400.0 mg/kg/injection, schedule: Q04DX002 (ip), vehicle: saline.
The mark [8] stands for this setting: dose: 100.0 mg/kg/injection, schedule: Q01DX009 (ip), vehicle: saline with Tween-80.
Where [9] appears, read: dose: 200.0 mg/kg/injection, schedule: Q01DX009 (ip), vehicle: saline with Tween-80.
The mark [10] stands for this setting: dose: 400.0 mg/kg/injection, schedule: Q01DX009 (ip), vehicle: saline with Tween-80.
Where [11] appears, read: dose: 100.0 mg/kg/injection, schedule: Q01DX009 (ip), vehicle: other.
Where [12] appears, read: dose: 200.0 mg/kg/injection, schedule: Q01DX009 (ip), vehicle: other.
The mark [13] stands for this setting: dose: 400.0 mg/kg/injection, schedule: Q01DX009 (ip), vehicle: other.
Setting [14] is: dose: 100.0 mg/kg/injection, schedule: Q04DX003 (ip), vehicle: saline with Tween-80.
[15] abbreviates: dose: 200.0 mg/kg/injection, schedule: Q04DX003 (ip), vehicle: saline with Tween-80.
The mark [16] stands for this setting: dose: 400.0 mg/kg/injection, schedule: Q04DX003 (ip), vehicle: saline with Tween-80.

Where “and” joins values, the source holds several entries; their conditions need not be identical. Equal entries are not always repeated. Inconclusive results and toxic doses are left out.

In the case of `Cc1nc2nc(N)nc(N)c2nc1C`, the T/C (dose: 15.63 mg/kg/injection, schedule: Q01DX Z (ip), vehicle: carboxymethylcellulose (CMC)) is 103 % of control; the T/C (dose: 31.25 mg/kg/injection, schedule: Q01DX Z (ip), vehicle: carboxymethylcellulose (CMC)) is 93 % of control; the T/C under setting [1] is 117 % of control; the T/C (dose: 62.5 mg/kg/injection, schedule: Q01DX Z (ip), vehicle: carboxymethylcellulose (CMC)) was 91 % of control; the T/C under setting [2] was 102 % of control; the T/C (dose: 125.0 mg/kg/injection, schedule: Q01DX Z (ip), vehicle: carboxymethylcellulose (CMC)) is 92 % of control. For the same molecule, the T/C by setting is: under setting [3], 102 % of control; under setting [4], 100 % of control.

For `C/C(N)=N\O`, the T/C under setting [5] was 105 % of control, the T/C under setting [6] is 102 % of control and the T/C under setting [7] is 105 % of control.

Turning to `COc1ccc(C(=O)CC(C#N)c2ccc3c(c2)OCO3)cc1OC` (configuration not stated), the T/C under setting [8] was 94 % of control, the T/C under setting [9] is 94 % of control and the T/C under setting [10] is 96 % of control.

Turning to `CCOC(=O)C(C(C)=O)C(=O)OCC`, the T/C is, setting by setting: (dose: 25.0 mg/kg/injection, schedule: Q01DX009 (ip), vehicle: other) 101 % of control; (dose: 50.0 mg/kg/injection, schedule: Q01DX009 (ip), vehicle: other) 103 % of control; under setting [11], 109 % of control; under setting [12], 100 % of control; under setting [13], 95 % of control.

On to `COc1cc(C(=O)N=Nc2c(O)[nH]c3ccc(Br)cc23)cc(OC)c1OC`, for which the T/C (dose: 100.0 mg/kg/injection, schedule: Q04DX002 (ip), vehicle: Klucel (hydroxypropylcellulose) (HPC)) was 115 % of control; the T/C (dose: 200.0 mg/kg/injection, schedule: Q04DX002 (ip), vehicle: Klucel (hydroxypropylcellulose) (HPC)) is 104 % of control; the T/C (dose: 400.0 mg/kg/injection, schedule: Q04DX002 (ip), vehicle: Klucel (hydroxypropylcellulose) (HPC)) was 115 % of control.

On to `CC(=O)CC(=O)Nc1ccc(C)cc1C`, for which the T/C runs as follows: (dose: 100.0 mg/kg/injection, schedule: Q04DX003 (ip), vehicle: Klucel (hydroxypropylcellulose) (HPC)) 102 % of control; (dose: 200.0 mg/kg/injection, schedule: Q04DX003 (ip), vehicle: Klucel (hydroxypropylcellulose) (HPC)) 98 % of control; (dose: 400.0 mg/kg/injection, schedule: Q04DX003 (ip), vehicle: Klucel (hydroxypropylcellulose) (HPC)) 115 % of control.

In the case of `COc1cc(OC)c2c(c1Cl)OC1(C(=O)C=CCC1C)C2=O` (configuration not stated), the T/C runs as follows: under setting [14], 98 % of control; under setting [15], 104 % of control; under setting [16], 96 % of control.

Consider `CC(=O)NCCOc1ccc(N)cc1`, for which the T/C (dose: 100.0 mg/kg/injection, schedule: Q04DX003 (ip), vehicle: saline) is 104 % of control; the T/C (dose: 200.0 mg/kg/injection, schedule: Q04DX003 (ip), vehicle: saline) was 98 % of control; the T/C (dose: 400.0 mg/kg/injection, schedule: Q04DX003 (ip), vehicle: saline) was 98 % of control.

As for `c1ccc(OCC2CO2)cc1` (configuration not stated), the T/C is 100 % of control (dose: 50.0 mg/kg/injection, schedule: Q01DX001 (ip), vehicle: carboxymethylcellulose (CMC)); 100 % of control (dose: 100.0 mg/kg/injection, schedule: Q01DX001 (ip), vehicle: carboxymethylcellulose (CMC)); 96 % of control under setting [8]; 95 % of control under setting [14]; 105 % of control (dose: 200.0 mg/kg/injection, schedule: Q01DX001 (ip), vehicle: carboxymethylcellulose (CMC)); 93 % of control under setting [9]. The T/C under setting [15] is 97 % of control; the T/C (dose: 400.0 mg/kg/injection, schedule: Q01DX001 (ip), vehicle: carboxymethylcellulose (CMC)) is 97 % of control; the T/C under setting [10] was 98 % of control; the T/C under setting [16] is 97 % of control.

In the case of `Nc1nc2c(nc(Br)n2C2CC(O)C(CO)O2)c(=O)[nH]1` (configuration not stated), the T/C was 102 % of control under setting [1], 102 % of control under setting [2], 98 % of control under setting [3] and 98 % of control under setting [4].

For the molecule `CC1(C)C[N+](Cc2ccccc2)(Cc2ccccc2)C1`, the T/C (dose: 0.78 mg/kg/injection, schedule: Q01DX009 (ip), vehicle: saline) was 100 % of control; the T/C (dose: 1.56 mg/kg/injection, schedule: Q01DX009 (ip), vehicle: saline) was 102 % of control; the T/C (dose: 3.12 mg/kg/injection, schedule: Q01DX009 (ip), vehicle: saline) was 100 % of control; the T/C (dose: 6.25 mg/kg/injection, schedule: Q01DX009 (ip), vehicle: saline) was 103 % of control; the T/C (dose: 12.5 mg/kg/injection, schedule: Q04DX003 (ip), vehicle: saline) was 112 % of control; the T/C (dose: 25.0 mg/kg/injection, schedule: Q04DX003 (ip), vehicle: saline) is 98 % of control. In addition, the T/C (dose: 50.0 mg/kg/injection, schedule: Q04DX003 (ip), vehicle: saline) was 97 % of control.

As for `O=c1ccn(Cc2ccccc2)c(SCc2ccccc2)n1`, the T/C was 105 % of control under setting [1]; 102 % of control (dose: 50.0 mg/kg/injection, schedule: Q01DX009 (ip), vehicle: Klucel (hydroxypropylcellulose) (HPC)); 109 % of control under setting [2]; 95 % of control (dose: 100.0 mg/kg/injection, schedule: Q01DX009 (ip), vehicle: Klucel (hydroxypropylcellulose) (HPC)); 91 % of control under setting [3]; 98 % of control (dose: 200.0 mg/kg/injection, schedule: Q01DX009 (ip), vehicle: Klucel (hydroxypropylcellulose) (HPC)). In addition, the T/C under setting [4] was 105 % of control.

With `N#C/C(=C/c1c(Cl)cccc1Cl)C(N)=O`, for the setting “dose: 75.0 mg/kg/injection, schedule: Q01DX001 (ip), vehicle: saline”, the T/C is 93 % of control.

As to `Nc1ncnc2c1c(C1=NCCN1)cn2C1OC(CO)C(O)C1O` (configuration not stated), the T/C is, setting by setting: (dose: 25.0 mg/kg/injection, schedule: Q01DX009 (ip), vehicle: saline) 179 % of control; (dose: 50.0 mg/kg/injection, schedule: Q01DX009 (ip), vehicle: saline) 155 % of control and 230 % of control; (dose: 200.0 mg/kg/injection, schedule: Q01DX005 (ip), vehicle: saline) 105 % of control.

Take `O=[N+]([O-])c1ccc(-c2ccc([N+](=O)[O-])c(-c3ccccc3)c2)cc1`: the T/C was 93 % of control under setting [14] and 88 % of control under setting [15].

For the molecule `O=C(COc1cc(Cl)c(Cl)cc1Cl)Nc1ccc(-c2ccccc2)cc1`, the T/C (dose: 75.0 mg/kg/injection, schedule: Q04DX002 (ip), vehicle: Klucel (hydroxypropylcellulose) (HPC)) is 95 % of control; the T/C (dose: 150.0 mg/kg/injection, schedule: Q04DX002 (ip), vehicle: Klucel (hydroxypropylcellulose) (HPC)) is 103 % of control; the T/C (dose: 300.0 mg/kg/injection, schedule: Q04DX002 (ip), vehicle: Klucel (hydroxypropylcellulose) (HPC)) was 98 % of control.

Regarding `Nc1nnnn1CC(Br)CBr` (configuration not stated), the T/C runs as follows: under setting [5], 104 % of control; under setting [6], 101 % of control; under setting [7], 90 % of control.

In the case of `CC(C(=O)O)N(Cc1ccccc1)S(C)(=O)=O` (configuration not stated), the T/C was 97 % of control under setting [11]; 94 % of control (dose: 100.0 mg/kg/injection, schedule: Q04DX003 (ip), vehicle: other); 106 % of control under setting [12]; 102 % of control (dose: 200.0 mg/kg/injection, schedule: Q04DX003 (ip), vehicle: other); 108 % of control under setting [13]; 101 % of control (dose: 400.0 mg/kg/injection, schedule: Q04DX003 (ip), vehicle: other).

The record behind these values is PubChem BioAssay AID248 (DTP/NCI, 2004).
